These results are taken from PMC11792831, “Design and synthesis of doublecortin-like kinase 1 inhibitors and their bioactivity evaluation” (Journal of Enzyme Inhibition and Medicinal Chemistry, 2023).

In one data set the target is T1, DCLK1 (Homo sapiens, UniProt O15075).
T1 construct: purchased Eurofins (Belgium), contract assay service
T1 sequence (O15075 1-740): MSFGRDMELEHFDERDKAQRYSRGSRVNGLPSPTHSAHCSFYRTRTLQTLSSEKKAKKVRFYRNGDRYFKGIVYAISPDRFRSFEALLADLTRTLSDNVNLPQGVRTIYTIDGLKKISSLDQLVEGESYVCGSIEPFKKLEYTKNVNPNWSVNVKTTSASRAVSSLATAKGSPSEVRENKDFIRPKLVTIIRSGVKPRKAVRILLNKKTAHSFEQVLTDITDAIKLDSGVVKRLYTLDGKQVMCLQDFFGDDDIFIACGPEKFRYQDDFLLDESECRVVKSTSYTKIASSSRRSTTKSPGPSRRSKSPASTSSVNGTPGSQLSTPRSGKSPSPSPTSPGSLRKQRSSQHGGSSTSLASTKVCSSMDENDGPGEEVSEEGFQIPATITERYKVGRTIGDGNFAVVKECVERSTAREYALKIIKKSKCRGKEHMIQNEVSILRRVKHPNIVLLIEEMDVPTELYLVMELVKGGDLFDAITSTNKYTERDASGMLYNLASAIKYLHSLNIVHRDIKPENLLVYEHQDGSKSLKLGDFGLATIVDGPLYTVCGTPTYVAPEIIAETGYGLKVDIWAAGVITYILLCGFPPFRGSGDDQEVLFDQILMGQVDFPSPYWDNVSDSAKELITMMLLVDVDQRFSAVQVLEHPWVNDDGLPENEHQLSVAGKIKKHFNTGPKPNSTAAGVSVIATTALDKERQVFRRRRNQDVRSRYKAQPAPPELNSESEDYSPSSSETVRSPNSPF
Put plainly: In vitro DCLK1 kinase activity assay (Eurofins). It counts as biochemical. To be noted: for Selectivity (DCLK1 activity/LRRK2 activity): ratio of remaining activities at 1 uM; for DCLK1 activity (%) / activity at 1 µM: remaining kinase activity at 1 uM compound, 100% = no inhibition, 0% = complete inhibition; for activity at 1 µM: read-out: DCLK1 activity (%). An excerpt:
(§1) Eurofins (Belgium) conducted in vitro DCLK1 and LRRK2 kinase activity assays. Compounds were sent as dry powders to Eurofins.

The next data set has as its target T2, LRRK2 (Homo sapiens, UniProt Q5S007).
T2 construct: purchased Eurofins (Belgium), contract assay service
Put plainly: In vitro LRRK2 kinase activity assay (Eurofins). It is filed as biochemical. To be noted: remaining kinase activity at 1 uM compound; 100% = no inhibition, 0% = complete inhibition. The procedure:
All compounds were tested for their kinase inhibitory activity at the concentration of 1 μM. […] Compounds with high activity or good selectivity were selected for further IC50 determination (Table 2).
as §1

T2 sequence (Q5S007 whole entry): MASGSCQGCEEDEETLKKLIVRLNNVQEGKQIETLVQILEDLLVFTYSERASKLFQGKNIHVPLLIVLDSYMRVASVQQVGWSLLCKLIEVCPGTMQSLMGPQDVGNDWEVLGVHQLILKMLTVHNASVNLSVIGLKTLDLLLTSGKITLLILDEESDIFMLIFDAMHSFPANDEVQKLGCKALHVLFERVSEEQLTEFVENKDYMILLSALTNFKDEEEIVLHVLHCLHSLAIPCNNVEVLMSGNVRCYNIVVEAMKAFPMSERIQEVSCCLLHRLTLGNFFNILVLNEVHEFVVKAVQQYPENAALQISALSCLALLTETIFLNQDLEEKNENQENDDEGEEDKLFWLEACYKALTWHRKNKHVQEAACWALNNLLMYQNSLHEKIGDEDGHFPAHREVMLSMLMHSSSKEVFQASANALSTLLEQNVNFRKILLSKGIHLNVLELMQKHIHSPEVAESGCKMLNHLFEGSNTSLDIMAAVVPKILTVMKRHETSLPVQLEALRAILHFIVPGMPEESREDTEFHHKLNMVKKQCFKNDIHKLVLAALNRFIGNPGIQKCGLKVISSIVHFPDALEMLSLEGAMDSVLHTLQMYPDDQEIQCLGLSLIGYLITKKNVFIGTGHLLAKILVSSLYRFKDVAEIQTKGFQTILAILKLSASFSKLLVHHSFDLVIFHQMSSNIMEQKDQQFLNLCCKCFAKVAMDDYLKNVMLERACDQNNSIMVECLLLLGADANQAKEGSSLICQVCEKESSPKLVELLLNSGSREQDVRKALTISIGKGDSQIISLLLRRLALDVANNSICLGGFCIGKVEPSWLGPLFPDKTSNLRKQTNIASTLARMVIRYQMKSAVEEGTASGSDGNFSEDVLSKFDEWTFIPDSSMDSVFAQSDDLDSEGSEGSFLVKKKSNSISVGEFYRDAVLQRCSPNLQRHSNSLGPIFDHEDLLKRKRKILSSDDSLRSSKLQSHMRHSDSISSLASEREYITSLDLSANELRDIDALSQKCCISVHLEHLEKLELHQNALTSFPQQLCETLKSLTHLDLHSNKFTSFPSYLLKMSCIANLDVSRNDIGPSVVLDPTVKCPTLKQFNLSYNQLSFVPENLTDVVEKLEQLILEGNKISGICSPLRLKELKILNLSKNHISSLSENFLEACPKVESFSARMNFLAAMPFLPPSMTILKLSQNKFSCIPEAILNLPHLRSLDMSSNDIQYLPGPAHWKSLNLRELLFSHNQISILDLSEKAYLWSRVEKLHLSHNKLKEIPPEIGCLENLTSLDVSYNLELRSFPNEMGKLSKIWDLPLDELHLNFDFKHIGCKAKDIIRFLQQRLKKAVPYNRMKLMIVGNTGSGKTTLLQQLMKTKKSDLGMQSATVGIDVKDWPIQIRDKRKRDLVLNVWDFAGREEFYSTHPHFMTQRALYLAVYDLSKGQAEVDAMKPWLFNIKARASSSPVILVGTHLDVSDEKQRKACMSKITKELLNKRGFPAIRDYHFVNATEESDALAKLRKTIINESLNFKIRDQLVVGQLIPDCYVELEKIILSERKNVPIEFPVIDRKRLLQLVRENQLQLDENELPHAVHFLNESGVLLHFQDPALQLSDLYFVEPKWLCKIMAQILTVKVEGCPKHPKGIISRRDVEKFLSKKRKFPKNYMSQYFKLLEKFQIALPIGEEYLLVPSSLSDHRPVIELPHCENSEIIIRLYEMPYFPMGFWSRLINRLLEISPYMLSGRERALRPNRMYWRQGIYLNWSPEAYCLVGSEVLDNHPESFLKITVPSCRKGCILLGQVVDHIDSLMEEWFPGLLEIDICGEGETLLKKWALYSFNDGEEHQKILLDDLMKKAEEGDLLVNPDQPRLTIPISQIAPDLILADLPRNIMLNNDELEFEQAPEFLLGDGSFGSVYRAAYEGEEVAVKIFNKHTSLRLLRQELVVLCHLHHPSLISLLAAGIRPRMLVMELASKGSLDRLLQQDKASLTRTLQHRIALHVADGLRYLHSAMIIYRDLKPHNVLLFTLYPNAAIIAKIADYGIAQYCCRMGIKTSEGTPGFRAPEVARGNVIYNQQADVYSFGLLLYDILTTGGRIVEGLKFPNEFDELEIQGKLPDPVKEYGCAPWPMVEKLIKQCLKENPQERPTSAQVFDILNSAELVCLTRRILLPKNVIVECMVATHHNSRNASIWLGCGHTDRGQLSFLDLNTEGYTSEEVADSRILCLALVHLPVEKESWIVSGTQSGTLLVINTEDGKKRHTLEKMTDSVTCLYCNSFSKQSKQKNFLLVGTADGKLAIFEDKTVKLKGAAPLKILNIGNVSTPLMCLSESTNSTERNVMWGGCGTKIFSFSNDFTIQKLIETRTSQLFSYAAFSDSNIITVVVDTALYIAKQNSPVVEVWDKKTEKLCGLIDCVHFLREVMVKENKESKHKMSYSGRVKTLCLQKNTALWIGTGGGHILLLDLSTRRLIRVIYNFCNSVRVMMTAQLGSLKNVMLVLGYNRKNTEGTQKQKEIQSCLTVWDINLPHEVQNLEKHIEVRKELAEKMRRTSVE

Consider “2-((2-Ethoxy-4-(4-hydroxypiperidin-1-yl)phenyl)amino)-11-methyl-5,11-dihydro-6H-benzo[e]pyrimido[5,4-b][1,4]diazepin-6-one [Compound B1]”, for which, at DCLK1, the “Selectivity (DCLK1 activity/LRRK2 activity)” value is 1.34 and the “DCLK1 activity (%)” value is listed as 102%. Further, at LRRK2, the “LRRK2 activity (%)” value is 76%.
Broadly, the melting point is the temperature, or range, at which the solid turns liquid. For `COc1cc(N2CCC(F)CC2)ccc1Nc1ncc2c(n1)N(C)c1ccccc1C(=O)N2C` [Compound D13, 2-((4-(4-Fluoropiperidin-1-yl)-2-methoxyphenyl)amino)-5,11-dimethyl-5,11-dihydro-6H-benzo[e]pyrimido[5,4-b][1,4]diazepin-6-one], the melting point fell in the range of 160 to 161 °C. On DCLK1, the “Selectivity (DCLK1 activity/LRRK2 activity)” value is given as 0.82 and the activity at 1 µM worked out at 59%. On LRRK2, the activity at 1 µM was determined as 72%.
In the same order, the values of `CN1C(=O)c2ccccc2N(C)c2nc(NC3CCC(N4CCC(O)CC4)CC3)ncc21` (centres unmarked) [Compound C1, 2-((4-(4-Hydroxypiperidin-1-yl)cyclohexyl)amino)-5,11-dimethyl-5,11-dihydro-6H-benzo[e]pyrimido[5,4-b][1,4]diazepin-6-one] are 203 to 204 °C, 0.57, 56% and 99%.
In the same order, the values of `CCOc1cc(N2CCC(O)CC2)ccc1Nc1ncc2c(n1)N(C)c1ccc(Cl)cc1C(=O)N2C` [Compound A5, 8-Chloro-2-((2-ethoxy-4-(4-hydroxypiperidin-1-yl)phenyl)amino)-5,11-dimethyl-5,11-dihydro-6H-benzo[e]pyrimido[5,4-b][1,4]diazepin-6-one] are 173 to 174 °C, 0.98, 87% and 89%.
In the same order, the values of `CCOc1cc(N2CCC(O)CC2)ccc1Nc1ncc2c(n1)N(C)c1cc(Cl)ccc1C(=O)N2C` [Compound A3, 9-Chloro-2-((2-ethoxy-4-(4-hydroxypiperidin-1-yl)phenyl)amino)-5,11-dimethyl-5,11-dihydro-6H-benzo[e]pyrimido[5,4-b][1,4]diazepin-6-one] are 162 to 163 °C, 0.97, 85% and 88%.
As to `CCOc1cc(N2CCC(O)CC2)ccc1Nc1ncc2c(n1)N(C)c1c(C)cccc1C(=O)N2C` [Compound A2, 2-((2-Ethoxy-4-(4-hydroxypiperidin-1-yl)phenyl)amino)-5,10,11-trimethyl-5,11-dihydro-6H-benzo[e]pyrimido[5,4-b][1,4]diazepin-6-one], the melting point is 177 to 178 °C. At DCLK1, the “Selectivity (DCLK1 activity/LRRK2 activity)” value is given as 1.03 and the activity at 1 µM was determined as 103%. Further, the activity at 1 µM on LRRK2 was 100%.
Turning to `CCOc1cc(N2CCC(C)(F)CC2)ccc1Nc1ncc2c(n1)N(C)c1ccccc1C(=O)N2CC` [Compound D10, 2-((2-Ethoxy-4-(4-fluoro-4-methylpiperidin-1-yl)phenyl)amino)-5-ethyl-11-methyl-5,11-dihydro-6H-benzo[e]pyrimido[5,4-b][1,4]diazepin-6-one], the melting point lay within 189 to 190 °C. Moreover, at DCLK1, the “Selectivity (DCLK1 activity/LRRK2 activity)” value is 0.63 and the activity at 1 µM is 51%. Moreover, the activity at 1 µM at LRRK2 was found to be 81%.
The molecule `CCOc1cc(N2CCC(O)CC2)ccc1Nc1ncc2c(n1)N(C)c1cc(C)ccc1C(=O)N2C` [Compound A4, 2-((2-Ethoxy-4-(4-hydroxypiperidin-1-yl)phenyl)amino)-5,9,11-trimethyl-5,11-dihydro-6H-benzo[e]pyrimido[5,4-b][1,4]diazepin-6-one] yielded a melting point of 171 to 172 °C. At DCLK1, the “Selectivity (DCLK1 activity/LRRK2 activity)” value is listed as 1.07 and the activity at 1 µM worked out at 89%. The activity at 1 µM on LRRK2 is 83%.
The molecule `CCOc1cc(N2CCC(O)CC2)ccc1Nc1ncc2c(n1)N(C)c1ccc(C(F)(F)F)cc1C(=O)N2C` [Compound A7, 2-((2-Ethoxy-4-(4-hydroxypiperidin-1-yl)phenyl)amino)-5,11-dimethyl-8-(trifluoromethyl)-5,11-dihydro-6H-benzo[e]pyrimido[5,4-b][1,4]diazepin-6-one] showed a melting point of 119 to 120 °C. Moreover, at DCLK1, the “Selectivity (DCLK1 activity/LRRK2 activity)” value worked out at 1.00 and the activity at 1 µM was 109%. The activity at 1 µM at LRRK2 was found to be 109%.
On to “2-((2-Ethoxy-4-(4-hydroxypiperidin-1-yl)phenyl)amino)-5-methyl-5,11-dihydro-6H-benzo[e]pyrimido[5,4-b][1,4]diazepin-6-one [Compound B2]”, for which, on DCLK1, the “Selectivity (DCLK1 activity/LRRK2 activity)” value was 0.82 and the “DCLK1 activity (%)” value came out at 59%. Further, the “LRRK2 activity (%)” value at LRRK2 is reported as 72%.
Consider `CCOc1cc(N2CCC(C)(O)CC2)ccc1Nc1ncc2c(n1)N(C)c1ccccc1C(=O)N2CC` [Compound D9, 2-((2-Ethoxy-4-(4-hydroxy-4-methylpiperidin-1-yl)phenyl)amino)-5-ethyl-11-methyl-5,11-dihydro-6H-benzo[e]pyrimido[5,4-b][1,4]diazepin-6-one], for which the melting point was 178 to 179 °C. On DCLK1, the “Selectivity (DCLK1 activity/LRRK2 activity)” value is 0.51 and the activity at 1 µM was found to be 26%. For the same molecule, the activity at 1 µM at LRRK2 was 51%.
In the same order, the values of `CN1C(=O)c2ccccc2N(C)c2nc(Nc3ccc(N4CCC(O)CC4)nc3)ncc21` [Compound C2, 2-((6-(4-Hydroxypiperidin-1-yl)pyridin-3-yl)amino)-5,11-dimethyl-5,11-dihydro-6H-benzo[e]pyrimido[5,4-b][1,4]diazepin-6-one] are 189 to 190 °C, 2.14, 15% and 7%.
In the same order, the values of `CCOc1cc(N2CCC(O)CC2)ccc1Nc1ncc2c(n1)N(C)c1cccc(C)c1C(=O)N2C` [Compound A10, 2-((2-Ethoxy-4-(4-hydroxypiperidin-1-yl)phenyl)amino)-5,7,11-trimethyl-5,11-dihydro-6H-benzo[e]pyrimido[5,4-b][1,4]diazepin-6-one] are 184 to 185 °C, 0.98, 96% and 98%.
The molecule `COc1cc(N2CCC(C)(C)CC2)ccc1Nc1ncc2c(n1)N(C)c1ccccc1C(=O)N2C` [Compound D16, 2-((4-(4,4-Dimethylpiperidin-1-yl)-2-methoxyphenyl)amino)-5,11-dimethyl-5,11-dihydro-6H-benzo[e]pyrimido[5,4-b][1,4]diazepin-6-one] returned a melting point of 181 to 182 °C. Moreover, at DCLK1, the “Selectivity (DCLK1 activity/LRRK2 activity)” value amounted to 0.45 and the activity at 1 µM turned out to be 15%. Also, on LRRK2, the activity at 1 µM is 33%.
Molecule `CCOc1cc(N2CCC(O)CC2)ccc1Nc1ncc2c(n1)N(C)c1c(Cl)cccc1C(=O)N2C` [Compound A1, 10-Chloro-2-((2-ethoxy-4-(4-hydroxypiperidin-1-yl)phenyl)amino)-5,11-dimethyl-5,11-dihydro-6H-benzo[e]pyrimido[5,4-b][1,4]diazepin-6-one] returned a melting point of 130 to 131 °C. In addition, on DCLK1, the “Selectivity (DCLK1 activity/LRRK2 activity)” value was determined as 3.13 and the activity at 1 µM came out at 25%. The activity at 1 µM at LRRK2 came to 8%.
In the same order, the values of `CCOc1cc(N2CCC(O)CC2)ccc1Nc1ncc2c(n1)N(C)c1ccc(C)cc1C(=O)N2C` [Compound A8, 2-((2-Ethoxy-4-(4-hydroxypiperidin-1-yl)phenyl)amino)-5,8,11-trimethyl-5,11-dihydro-6H-benzo[e]pyrimido[5,4-b][1,4]diazepin-6-one] are 170 to 171 °C, 1.10, 102% and 93%.
